Source: article PMC5980303 (CPT: Pharmacometrics & Systems Pharmacology, 2018)
Several values for one entry are separate records, joined by “and”; a condition that tells them apart may be missing. Equal values may be shown once. Marks after values point to notes of the source that are not given here.

What was measured:
[1] = cited from earlier work
[2] = Integrated population pharmacokinetic model
[3] = cited from earlier work; remark: listed apart in the source
[4] = doses of 15 mg or 20 mg in the absence of food; cited from earlier work
[5] = final population PK model, comedication factor on CL/F

O=C(NC[C@H]1CN(c2ccc(N3CCOCC3=O)cc2)C(=O)O1)c1ccc(Cl)s1 [rivaroxaban]
fraction of the dose eliminated renally as unchanged drug [1]: Approximately one‐third | θCL/F, VTE >72 h (study-specific factor on CL/F) ([2]; VTE prevention, >72 hours, relative to VTE treatment (factor = 1)): 1.29 Proportion | θCL/F, VTE ≤72 h (study-specific factor on CL/F) ([2]; VTE prevention, ≤72 hours, relative to VTE treatment (factor = 1)): 1.04 Proportion | θCL/F, ACS (study-specific factor on CL/F) ([2]; acute coronary syndrome population, relative to VTE treatment (factor = 1)): 1.14 Proportion | θCL/F, AF (study-specific factor on CL/F) ([2]; atrial fibrillation population, relative to VTE treatment (factor = 1)): 0.85 Proportion and 0.849 Proportion | D50 (dose parameter of relative bioavailability function) ([2]; final population PK model): 14.4 mg | ω2 CL/F (interindividual variability) ([2]; final population PK model): 0.167 (10.3) ^d Variance | ω2 CL/F, V/F ([2]; final population PK model): 0.0674 Covariance | ω2 ka (interindividual variability) ([2]; final population PK model): 0.628 (32.8) ^d Variance | ω^2 V/F (interindividual variability) ([2]; final population PK model): 0.0391 (25.7) ^d Variance | ka (first-order absorption rate constant) ([2]; final population PK model (run 12), 4,918 patients, oral rivaroxaban): 0.821 h⁻¹ | θCL/F, CYP3A4 inducer [2, 5]: 1.30 Proportion | θCL/F, Medium CYP3A4 inhibitor [2, 5]: 0.863 Proportion | θCL/F, Strong CYP3A4 inhibitor [2, 5]: 0.978 Proportion | θCL/F, Weak CYP3A4 inhibitor [2, 5]: 0.939 Proportion | θCL/F, PGP ([2]; final population PK model, comedication with P-gp inhibitor, factor on CL/F): 0.966 Proportion | θCL/F, CrCL ([2]; final population PK model, effect of Tietz-truncated CrCL on CL/F): 0.406 Power | θV/F, Age ([2]; final population PK model, effect of age on V/F): −0.189 Power | θV/F, Sex ([2]; final population PK model, effect of gender (female) on V/F): 0.889 Proportion | θCL/F, weight ([2]; final population PK model, effect of weight on CL/F): −0.278 Power | θV/F, weight ([2]; final population PK model, effect of weight on V/F): 0.216 Power | Fmax (relative bioavailability as a function of dose) ([2]; final population PK model, fixed, relative bioavailability fixed at 1.0 for a 10 mg dose): 1.25 Proportion | σ2 prop (residual variability) ([2]; final population PK model, proportional residual error): 0.203 (10.3) ^d Variance | Fmin (relative bioavailability as a function of dose) ([2]; final population PK model, relative to 10 mg dose (F = 1)): 0.590 Proportion | AUC increase in the presence of strong CYP3A4 inhibitors ([2]; integrated population PK model): 1.02 fold | Biopharmaceutics Classification System class [3]: class 2 | permeability (BCS classification) [3]: high permeability | solubility (BCS classification) [3]: low solubility | bioavailability and absorption rate vs dose [4]: less than dose proportional
